Source: US9238658B2, “Substituted piperidinyl-carboxamide derivatives useful as SCD 1 inhibitors” (Janssen Pharmaceutica NV, priority 2011, dated 2016)
Values joined by “and” are separate entries in the source; they are usually repeats but may differ in a detail not shown here. Identical values can stand only once. Marks after values point to notes of the source that are not given here.

Assays:
SCD1 [1] = molecular target: T1, SCD1 (Homo sapiens (Human), UniProt O00767); assay: SCD1 14C-palmitate assay in A431 cells; assay type: cell-based; details: read-out: A431 cells 14C-PA IC50
T1 sequence (O00767 whole entry): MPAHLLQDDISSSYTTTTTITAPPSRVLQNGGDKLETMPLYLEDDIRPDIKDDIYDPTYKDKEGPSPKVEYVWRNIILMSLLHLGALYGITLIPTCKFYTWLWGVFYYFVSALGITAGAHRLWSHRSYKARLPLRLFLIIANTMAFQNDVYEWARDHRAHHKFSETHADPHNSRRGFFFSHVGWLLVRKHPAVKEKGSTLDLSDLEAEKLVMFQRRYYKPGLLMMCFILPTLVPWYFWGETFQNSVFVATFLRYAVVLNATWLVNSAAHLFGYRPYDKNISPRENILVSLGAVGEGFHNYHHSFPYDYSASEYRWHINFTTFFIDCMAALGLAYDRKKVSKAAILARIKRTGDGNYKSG
Procedure: Human epithelial carcinoma A431 cells were seeded at 400,000 cells per well in 48-well tissue culture plate and treated with 2 cycles of fasting in low glucose medium (DMEM, Cellgro #10-014-CV, 1 g/L glucose, 2% Charcoal Filtered FBS) for 24 hours; and re-feeding with high glucose medium for 24 hours (DMEM, Cellgro #10-013-CM, 4.5 g/L glucose, 10% Charcoal Filtered FBS and 0.05 mg/mL Lilly Humulin R, Cat.#, HI-210). Prior to running the assay, the cells were washed twice with high glucose medium (400 μL), followed by addition of 250 μL assay buffer (DMEM, 4.5 g/L glucose, 0.05 mg/mL Human Insulin, 0.1% Fatty Acid Free BSA) to each well. Then, 100 μL of assay buffer containing 20 μM Palmitic Acid, 0.05 μCi ^14C Palmitic Acid (Perkin Elmer, NEC075H) and test compound (at selected concentration) was added to each well. The cells were then Incubated at 37° C. and 5% CO2 tissue culture incubator for 4 hours, followed by extensive washes with pre-chilled PBS. The cell plates were then frozen at −20° C. overnight. After thawing out the plates, 100 μL of 1N KOH was added to each well and the plates were incubated at 37° C. for 30 mins. Cell lysates were transferred to 1 mL Eppendorf tubes and incubated at 95° C. for 1 hour, followed by addition of 10 μL formic acid and 220 μL acetonitrile. The tubes were then centrifuged at 12,000 rpm and the supernatant dried under N2 for 2-3 hours. Dried extract was re-suspended in 60 μL hexane and loaded onto TLC plates (pre-coated with 10% AgNO3 in acetonitrile). The TLC plates were placed into glass running chamber containing 200 mL running solution (100 mL running solution: 92.5 mL chloroform, 6 mL methanol, 750 μL acetic acid, 750 μL dH2O). After running, the TLC plates were air dried and scanned on Bioscan AR-2000 for quantification of ^14C-palmitioleate and ^14C-palmitate peaks. Area under the curve of the peaks were used to calculate product/substrate ratio, an index of SCD1 activity.

SCD1 [2] = molecular target: SCD1 (Rattus norvegicus (Rat), UniProt P07308); assay: SCD1 enzymatic assay in rat liver microsomes (RLM); assay type: biochemical
SCD1 (Rattus norvegicus (Rat), UniProt P07308), sequence (P07308 whole entry): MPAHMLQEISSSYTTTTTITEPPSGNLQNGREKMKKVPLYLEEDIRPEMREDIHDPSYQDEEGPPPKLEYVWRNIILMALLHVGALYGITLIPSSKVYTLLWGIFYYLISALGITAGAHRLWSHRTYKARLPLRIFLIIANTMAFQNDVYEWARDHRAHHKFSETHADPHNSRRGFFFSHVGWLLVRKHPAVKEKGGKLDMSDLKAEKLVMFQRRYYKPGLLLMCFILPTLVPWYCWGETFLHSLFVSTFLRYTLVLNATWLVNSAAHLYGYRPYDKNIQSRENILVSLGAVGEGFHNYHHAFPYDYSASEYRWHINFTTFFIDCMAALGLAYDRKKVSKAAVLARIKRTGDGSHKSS

[3] = 10-day diet-induced obese C57bl/6 mice study; assay type: in vivo; details: DIO C57BL/6J mice, oral, 10 days
Procedure: Male DIO C57BL/6J mice from Taconic were maintained on high fat diet D12492 containing 60% kCal of mostly saturated fats (Research Diets Inc.) for 4 week from 6-week old. Test compounds were prepared in 0.5% hydroxypropyl methyl cellulose for oral dosing at 10 mg/kg or 30 mg/kg, either q.d. or b.i.d., as noted in the results table below. After 10-days of treatment, body weight change are recorded. Plasma liver enzyme levels (ALT and AST) were also determined.
Compound #6 of the present invention was tested according to the procedure as described above, with results as listed in Table 4, below. In the results presented below, * indicates a calculated p value<0.05 vs. vehicle-treated group.

SCD1 [4] = molecular target: T1, SCD1; assay: SCD1 13C-palmitic acid assay in A431 cells; assay type: cell-based; details: read-out: A431 cells 13C-PA IC50
Procedure: Human epithelial carcinoma A431 cells were seeded at 100,000 cells/well in complete growth medium (DMEM, Cellgro #10-013-CM, 4.5 g/L glucose, 10% FBS) in the presence of 0.05 mg/mL human insulin (Hannas Pharmaceutical Supply Co Inc, Humanlin 100 U/ml, 4 mg/ml) in 96-well tissue culture plate. […] The cells were then returned to the tissue culture incubator (37° C. and 5% CO2) for 4 hrs. At the end of incubation, the cells were washed three times with 200 μL/well Hanks buffer (HBSS) and then stored at −20° C. until extraction.
For fatty acid extraction, after thawing out the plates, 40 μL of 1N KOH (containing 5 μM of internal standard 7,7,8,8-D4 palmitate) was added to each well and cell plates were incubated at 37° C. for 30 minutes. […] Acetonitrile (100 μL) was then added to extract fatty acids, followed by centrifugation at 3000 rpm for 10 minutes. 75 μL of extract was then transferred to a new glass vial in a 96-well cluster plate. 5 μL was injected for LC/MS analysis for detection of ^13C-palmitic acid and ^13C-palmitoleic acid. Formation of product ^13C-palmitoleic acid was determined as an index of SCD1 activity.
LC/MS analysis was performed as following. An Agilent 1100 Liquid Chromatographic System (Palo Alto, Calif.) consisting of a binary pump, a degasser and an autosampler was used. Separation of free fatty acids was performed on a Zorbax SB—C8 column (2.1×50 mm, particle size=3.5 μm). An isocratic elution was carried out with 10 mM triethylamine acetate in water:acetonitrile (3:7) at a flow rate of 0.3 mL/min. The column temperature was set at 30° C. and the sample injection volume was 5 μL. The LC run cycle was 4 min, A Micromass triple-quadrupole Quattro Micro mass […] (Waters, Beverly, Mass.) was interfaced with the LC system through a Z-spray electrospray ion source and was operated in the negative ion mode. Nitrogen was used as nebulizing gas, desolvation gas and cone curtain gas and argon was chosen as collision gas. The triple quadrupole MS source parameters were set as follows: capillary voltage, 3200V; cone voltage, 25V; extractor 2V, source temperature, 120° C.; desolvation temperature, 300° C.; cone gas flow, 50 L/h; and desolvation gas flow, 700 L/h. […] MassLynx software version 4.0 was used for system control and data processing. The signal of U—^13C-palmitoleic acid was normalized to an internal standard.

IC50 (SCD1 [1]) | IC50 (SCD1 [2]) | inhibition at 1 µM (SCD1 [2]; 1 μM test compound) [%] | Compound | also measured
209 nM and 325 nM | 573 nM and 502 nM | 70 | Cc1csc(NC(=O)N2CCC(n3ccc4ccccc43)CC2)n1 [Compound 4, 4-(1H-indol-1-yl)-N-(4-methylthiazol-2-yl)-piperidine-1-carboxamide] | –
711 nM and 726 nM | 413 nM | 74 | CNC(=O)c1cccc(NC(=O)N2CCC(c3noc4ccc(F)cc34)CC2)c1 [Compound 5] | –
290 nM | 140 nM | 88 | Cc1csc(NC(=O)N2CCC(c3noc4ccc(F)cc34)CC2)n1 [Compound 6, 4-(5-fluorobenzo[d]isoxazol-3-yl)-N-(4-methylthiazol-2-yl)-piperidine-1-carboxamide] | Body weight change (g) ([3]; 10 mg/kg, q.d): 0.00 ± 0.36* g; Plasma ALT (U/L) ([3]; 10 mg/kg, q.d): 57 ± 7 U/L; Plasma AST (U/L) ([3]; 10 mg/kg, q.d): 89 ± 7 U/L; Body weight change (g) ([3]; 30 mg/kg, bid): −0.69 ± 0.38 * g; Plasma ALT (U/L) ([3]; 30 mg/kg, bid): 41 ± 3 U/L; Plasma AST (U/L) ([3]; 30 mg/kg, bid): 102 ± 17 U/L; Body weight change (g) ([3]; 30 mg/kg, q.d): 0.01 ± 0.24* g; Plasma ALT (U/L) ([3]; 30 mg/kg, q.d): 68 ± 12 U/L; Plasma AST (U/L) ([3]; 30 mg/kg, q.d): 93 ± 7 U/L; % Inh. @ 1 μM (SCD1 [2]; 1 μM test compound): 95% and 77%; IC50 (SCD1 [4]): 54 nM
640 nM | 444 nM | 79 | CCCc1nc2ccc(NC(=O)N3CCC(c4noc5ccc(F)cc45)CC3)cc2s1 [Compound 9, 4-(5-fluorobenzo[d]isoxazol-3-yl)-N-(2-propylbenzo[d]thiazol-6-yl)piperidine-1-carboxamide] | –
755 nM | 151 nM | 82 | CNC(=O)c1cccc(NC(=O)N2CCC(N3CCc4ccccc43)CC2)c1 [Compound 12, 4-(indolin-1-yl)-N-(3-(methylcarbamoyl)phenyl)piperidine-1-carboxamide] | –
848 nM | 491 nM | 81 | Cc1csc(NC(=O)N2CCC(N3CCCc4ccccc43)CC2)n1 [Compound 13, 4-(3,4-dihydroquinolin-1(2H)-yl)-N-(4-methylthiazol-2-yl)piperidine-1-carboxamide] | –
